EC50 data for eight molecules are collected here from US20130244995A1, “CALCIUM-SENSING RECEPTOR-ACTIVE COMPOUNDS” (LEO PHARMA A/S, priority 2010, published 2013).

Each structure is given as a SMILES string. pEC50: −log10 of the molar value.

In this experiment the target is T1, human CaSR (Homo sapiens, UniProt P41180).
T1 sequence (P41180 20-1078): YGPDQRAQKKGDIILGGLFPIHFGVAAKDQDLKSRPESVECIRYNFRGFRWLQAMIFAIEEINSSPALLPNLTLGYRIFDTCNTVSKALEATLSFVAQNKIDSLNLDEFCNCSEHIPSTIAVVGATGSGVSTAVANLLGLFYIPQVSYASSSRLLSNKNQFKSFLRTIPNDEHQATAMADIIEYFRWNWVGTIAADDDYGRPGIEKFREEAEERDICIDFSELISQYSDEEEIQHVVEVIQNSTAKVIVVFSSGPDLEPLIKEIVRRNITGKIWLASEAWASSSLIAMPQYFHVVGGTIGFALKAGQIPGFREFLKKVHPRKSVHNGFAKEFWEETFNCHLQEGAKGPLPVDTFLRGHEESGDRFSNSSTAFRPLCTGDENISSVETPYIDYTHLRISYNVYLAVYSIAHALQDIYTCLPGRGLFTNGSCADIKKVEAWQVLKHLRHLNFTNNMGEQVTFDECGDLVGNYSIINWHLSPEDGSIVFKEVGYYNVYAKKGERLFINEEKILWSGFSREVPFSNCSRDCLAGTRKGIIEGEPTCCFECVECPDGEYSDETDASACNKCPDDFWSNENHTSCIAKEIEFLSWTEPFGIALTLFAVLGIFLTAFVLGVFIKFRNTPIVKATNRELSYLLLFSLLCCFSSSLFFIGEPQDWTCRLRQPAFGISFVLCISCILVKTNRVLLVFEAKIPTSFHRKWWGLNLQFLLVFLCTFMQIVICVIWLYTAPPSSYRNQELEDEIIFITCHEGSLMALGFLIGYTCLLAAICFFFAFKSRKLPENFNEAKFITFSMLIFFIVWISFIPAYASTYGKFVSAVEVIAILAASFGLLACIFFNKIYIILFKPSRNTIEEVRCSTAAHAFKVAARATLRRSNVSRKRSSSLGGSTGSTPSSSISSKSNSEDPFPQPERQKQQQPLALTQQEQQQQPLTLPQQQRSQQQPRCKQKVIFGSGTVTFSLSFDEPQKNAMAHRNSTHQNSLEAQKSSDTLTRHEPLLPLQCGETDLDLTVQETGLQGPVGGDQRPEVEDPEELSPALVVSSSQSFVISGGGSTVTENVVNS
Description: Functional whole cell assay (modulation of human CaSR), IP1 accumulation in CHO-K1 cells. The settings on record: CHO-K1 cells stably expressing human CaSR, final Ca2+ 1.9 mM, IP1 (IP-One htrf). The class given is cell-based. The source says: The assay investigates a compound's functional ability to act as a biological positive modulator on the human CaSR. Activation of the receptor expressed on CHO-K1 cells is detected through the G alpha q pathway, the activation of phospholipase C and the accumulation of intracellular inositol phosphate (IP) as described earlier [Sandrine Ferry, Bruno Chatel, Robert H. Dodd, Christine Lair, Danielle Gully, Jean-Pierre Maffrand, and Martial Ruat. Effects of Divalent Cations and of a Calcimimetic on Adrenocorticotropic Hormone Release in Pituitary Tumor Cells. Biological and Biophysical Research Comm., 238, 866-873 (1997)]. The human CaSR is stably expressed on a CHO-K1 cell clone, stimulated with a basal level of calcium and challenged with the tested compound. The level of IP1 is determined using the IP-One Terbium htrf kit (Cisbio, France). CHO-K1 cells not transfected with the CaSR fail to elicit an IP1 response upon calcium and/or compound stimulation.
The ORF coding for the human CaSR (genebank: NM_000388) was acquired from Invitrogen Corp, USA and subsequently cloned into the mammalian expression vector pCDA3.1.
CHO-K1 cells were transfected using Lipofectamine according to manufacturer's protocol (400.000 cells/well were seeded in a 6-well plate and transfected after 24 hours using 2 μg DNA and 5 μl lipofectamine). After another 24 hours the cells were detached, seeded and subjected to 1mg/ml of G-418. Following 7 days growth single clones were picked, the CaSR expression evaluated using the 5C10 antibody against CaSR, the clones with the highest expression were selected and tested for functional response. The preferred clone was cultured according to standard procedures described in ATCC (American Type Culture Collection) protocols for CHO-K1 with the addition of 500 μg/ml G-418.
On the assay day, cells were thawed, harvested and resuspended to 4*10^6 cells/ml in stimulation buffer (containing: Hepes 10mM, MgCl2 0.5mM, KCl 4.2 mM, NaCl 146 mM, glucose 5.5 mM, LiCl 50 mM, BSA 0.5% at pH 7.4). Ten μl cell solution was pipetted into wells of a white 384-well plate (Perkin Elmer Optiplate) containing 2 μl compound diluted in assay buffer (containing: Hepes 10 mM, MgCl2 0.5mM, KCl 4.2mM, NaCl 146mM, glucose 5.5 mM, LiCl 50 mM, CaCl2 11.4 mM at pH 7.4), resulting in a final Ca^2+ concentration of 1.9 mM. After compound stimulation for 1 hour at 37° C. and 15 min at room temperature, 10 ul of IP-One assay detection reagent (prepared as described by the IP-One assay kit manufacturer) was added and the plate was incubated for another 1 hour at room temperature. Finally the plate was read using a Perkin Elmer EnVision, according to the protocol supplied by the IP-One assay kit manufacturer. The FRET ratio was calculated by dividing the 665 nm emission signal with that of the 615 nm.
The molar concentration of a compound that produces 50% of the maximum agonistic response (the […] value) is calculated according to the equation “General sigmoidal curve with Hill slope, a to d” (Equation 1). This model describes a sigmoidal curve with an adjustable baseline. The equation can be used to fit curves where response is either increasing or decreasing with respect to the independent variable, X. […]
y=(a−d)/(1+(x/c)̂b)+d Equation 1. x=concentration of tested compound […]
a=min response as compound concentration approaches 0 d=max response as concentration of tested compound is increasing […]
b=Hill coefficient or curve slope
Assay results using compounds of the present invention indicate that compounds of the present invention are potent modulators of CaSR, thus making them potentially useful in the treatment of diseases related to kidneys or bones.

Take `COc1cc([C@@H](C)N[C@H]2CC[C@@H](c3ccc(CC(=O)N4CCCNCC4)cc3)C2)ccc1F` [Compound 110, 1-(1,4-Diazepan-1-yl)-2-[4-[(1R,3S)-3-[[(1R)-1-(4-fluoro-3-methoxy-Phenyl)ethyl]amino]cyclopentyl]phenyl]ethanone]: the pEC50 was more than 6.70.

Molecule `CCOc1cccc([C@@H](C)N[C@H]2CC[C@@H](c3ccc(CC(=O)NCCS(N)(=O)=O)cc3)C2)c1` [Compound 106, 2-[4-[(1R,3S)-3-[[(1R)-1-(3-Ethoxyphenyl)ethyl]amino]cyclopentyl]phenyl]-N-(2-sulfamoylethyl)acetamide] had a negative-log EC50 (pEC50) of more than 6.70.

Consider `COc1cc([C@@H](C)N[C@H]2CC[C@@H](c3ccc(CC(=O)N4CC(O)C4)cc3)C2)ccc1F` [Compound 109, 2-[4-[(1R,3S)-3-[[(1R)-1-(4-Fluoro-3-methoxy-phenyl)ethyl]amino]-cyclopentyl]phenyl]-1-(3-hydroxyazetidin-1-yl)ethanone], for which the pEC50 was more than 6.70.

Molecule `COc1cc([C@@H](C)N[C@H]2CC[C@@H](c3ccc(CC(=O)NCCNS(C)(=O)=O)cc3)C2)ccc1F` [Compound 102, 2-[4-[(1R,3S)-3-[[(1R)-1-(4-Fluoro-3-methoxy-phenyl)ethyl]amino]-cyclopentyl]phenyl]-N-[2-(methanesulfonamido)ethyl]acetamide; formic acid] had a pEC50 of 6.00 to 6.70.

Regarding `COc1cc([C@@H](C)N[C@H]2CC[C@@H](c3ccc(CC(=O)NCCNCCO)cc3)C2)ccc1F` [Compound 108, 2-[4-[(1R,3S)-3-[[(1R)-1-(4-Fluoro-3-methoxy-phenyl)ethyl]amino]-cyclopentyl]phenyl]-N-[2-(2-hydroxyethylamino)ethyl]acetamide], the pEC50 was more than 6.70.

In the case of `COc1cc([C@@H](C)N[C@H]2CC[C@@H](c3ccc(CC(=O)NCCS(N)(=O)=O)cc3)C2)ccc1F` [Compound 103, 2-[4-[(1R,3S)-3-[[(1R)-1-(4-Fluoro-3-methoxy-phenyl)ethyl]amino]-cyclopentyl]phenyl]-N-(2-sulfamoylethyl)acetamide; formic acid], the pEC50 was more than 6.70.

For the molecule `C[C@@H](N[C@H]1CC[C@@H](c2ccc(CC(=O)NCCS(N)(=O)=O)cc2)C1)c1cccc2c1OCO2` [Compound 104, 2-[4-[(1R,3S)-3-[[(1R)-1-(1,3-Benzodioxol-4-yl)ethyl]amino]-cyclo-pentyl]-phenyl]-N-(2-sulfamoylethyl)acetamide], the negative logarithm of the EC50 (pEC50) is more than 6.70.

`COc1cc([C@@H](C)N[C@H]2CC[C@@H](c3ccc(CC(=O)N4CCC(N)CC4)cc3)C2)ccc1F` [Compound 112, 1-(4-Amino-1-piperidyl)-2-[4-[(1R,3S)-3-[[(1R)-1-(4-fluoro-3-methoxy-phenyl)ethyl]amino]cyclopentyl]phenyl]ethanone] had a pEC50 of more than 6.70.
